Measured values reported in ChEMBL document CHEMBL4152351, “Isoxazolo[3,4-d]pyridazinones positively modulate the metabotropic glutamate subtypes 2 and 4” (Bioorg Med Chem, 2018).

Columns and labels:
[1] = target: Metabotropic glutamate receptor 5 (Homo sapiens, UniProt P41594); experiment: Displacement of MPEP from mGluR5 (unknown origin) after 3 hrs by liquid scintillation counting method
[2] = target: Glutamate [NMDA] receptor; experiment: Displacement of [3H]MK-801 from NMDA receptor (unknown origin) after 3 hrs by liquid scintillation counting method; assay type: protein-complex assay, Homo sapiens
[3] = target: Metabotropic glutamate receptor 4 (Homo sapiens) (UniProt Q14833); experiment: Antagonist activity at Gi-coupled mGluR4 (unknown origin) expressed in CHO cells assessed as decrease in glutamate-induced inhibition of forskolin-stimulated cAMP accumulation after 1 hr by glosensor based luciferase reporter gene assay relative to control; assay type: functional, cell-based; parameters: concentration or dose not given beside the values; conditions: concentration not given here
Sequence of Metabotropic glutamate receptor 4 (Homo sapiens) (Q14833 whole entry): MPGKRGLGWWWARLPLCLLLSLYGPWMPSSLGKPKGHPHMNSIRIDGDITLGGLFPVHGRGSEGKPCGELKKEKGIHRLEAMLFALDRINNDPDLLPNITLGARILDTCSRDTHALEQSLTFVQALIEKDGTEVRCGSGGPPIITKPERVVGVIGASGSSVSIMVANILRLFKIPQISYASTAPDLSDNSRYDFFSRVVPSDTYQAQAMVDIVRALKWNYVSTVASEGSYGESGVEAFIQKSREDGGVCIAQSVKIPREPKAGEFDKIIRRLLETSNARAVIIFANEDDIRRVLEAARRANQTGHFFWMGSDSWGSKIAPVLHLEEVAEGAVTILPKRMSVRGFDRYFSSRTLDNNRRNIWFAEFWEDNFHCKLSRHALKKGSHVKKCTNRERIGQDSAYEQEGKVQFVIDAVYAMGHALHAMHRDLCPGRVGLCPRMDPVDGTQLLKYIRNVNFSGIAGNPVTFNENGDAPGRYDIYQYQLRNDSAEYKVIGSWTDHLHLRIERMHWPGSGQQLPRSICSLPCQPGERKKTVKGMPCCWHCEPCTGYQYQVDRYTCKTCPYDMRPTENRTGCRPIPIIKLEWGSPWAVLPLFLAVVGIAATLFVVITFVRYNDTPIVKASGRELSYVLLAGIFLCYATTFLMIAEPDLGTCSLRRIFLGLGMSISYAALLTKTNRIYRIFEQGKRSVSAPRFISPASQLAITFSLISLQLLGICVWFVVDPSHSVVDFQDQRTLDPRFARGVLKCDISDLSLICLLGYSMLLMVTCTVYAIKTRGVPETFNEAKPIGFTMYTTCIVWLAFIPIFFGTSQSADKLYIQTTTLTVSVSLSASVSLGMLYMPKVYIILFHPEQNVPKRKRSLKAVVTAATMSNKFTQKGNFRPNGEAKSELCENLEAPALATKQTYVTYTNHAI

Homo sapiens = species on record: Homo sapiens; experiment: Displacement of muscimol from GABA-A receptor (unknown origin) after 90 mins by liquid scintillation counting method; parameters: concentration or dose not given beside the values
[4] = target: Metabotropic glutamate receptor 2 (Homo sapiens) (UniProt Q14416); experiment: Antagonist activity at Gi-coupled mGluR2 (unknown origin) expressed in CHO cells assessed as decrease in glutamate-induced inhibition of forskolin-stimulated cAMP accumulation after 1 hr by glosensor based luciferase reporter gene assay relative to control; assay type: functional, cell-based; parameters: concentration or dose not given beside the values; conditions: concentration not given here
Sequence of Metabotropic glutamate receptor 2 (Homo sapiens) (Q14416 19-872 limits assumed): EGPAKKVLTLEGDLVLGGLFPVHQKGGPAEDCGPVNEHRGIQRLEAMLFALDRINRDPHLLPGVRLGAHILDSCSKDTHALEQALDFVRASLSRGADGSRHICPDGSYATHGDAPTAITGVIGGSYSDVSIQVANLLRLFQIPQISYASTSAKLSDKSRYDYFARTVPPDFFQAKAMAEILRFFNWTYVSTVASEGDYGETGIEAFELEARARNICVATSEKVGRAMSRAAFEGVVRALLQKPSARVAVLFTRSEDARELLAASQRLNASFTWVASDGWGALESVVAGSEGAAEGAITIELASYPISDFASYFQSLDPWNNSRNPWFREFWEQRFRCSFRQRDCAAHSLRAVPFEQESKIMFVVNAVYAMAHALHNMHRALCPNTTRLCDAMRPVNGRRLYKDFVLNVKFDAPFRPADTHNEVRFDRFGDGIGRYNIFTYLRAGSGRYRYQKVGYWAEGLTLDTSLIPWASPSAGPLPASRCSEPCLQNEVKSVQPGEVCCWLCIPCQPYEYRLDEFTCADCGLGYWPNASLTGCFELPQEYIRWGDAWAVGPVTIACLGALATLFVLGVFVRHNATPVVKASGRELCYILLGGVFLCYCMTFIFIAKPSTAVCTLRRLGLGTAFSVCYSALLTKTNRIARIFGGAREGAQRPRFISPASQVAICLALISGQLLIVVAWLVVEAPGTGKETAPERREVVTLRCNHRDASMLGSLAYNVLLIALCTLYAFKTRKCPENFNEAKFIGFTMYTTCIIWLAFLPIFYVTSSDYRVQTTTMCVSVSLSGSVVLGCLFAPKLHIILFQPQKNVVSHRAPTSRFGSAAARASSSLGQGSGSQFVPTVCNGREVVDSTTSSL

Sequence of Metabotropic glutamate receptor 5 (P41594 whole entry): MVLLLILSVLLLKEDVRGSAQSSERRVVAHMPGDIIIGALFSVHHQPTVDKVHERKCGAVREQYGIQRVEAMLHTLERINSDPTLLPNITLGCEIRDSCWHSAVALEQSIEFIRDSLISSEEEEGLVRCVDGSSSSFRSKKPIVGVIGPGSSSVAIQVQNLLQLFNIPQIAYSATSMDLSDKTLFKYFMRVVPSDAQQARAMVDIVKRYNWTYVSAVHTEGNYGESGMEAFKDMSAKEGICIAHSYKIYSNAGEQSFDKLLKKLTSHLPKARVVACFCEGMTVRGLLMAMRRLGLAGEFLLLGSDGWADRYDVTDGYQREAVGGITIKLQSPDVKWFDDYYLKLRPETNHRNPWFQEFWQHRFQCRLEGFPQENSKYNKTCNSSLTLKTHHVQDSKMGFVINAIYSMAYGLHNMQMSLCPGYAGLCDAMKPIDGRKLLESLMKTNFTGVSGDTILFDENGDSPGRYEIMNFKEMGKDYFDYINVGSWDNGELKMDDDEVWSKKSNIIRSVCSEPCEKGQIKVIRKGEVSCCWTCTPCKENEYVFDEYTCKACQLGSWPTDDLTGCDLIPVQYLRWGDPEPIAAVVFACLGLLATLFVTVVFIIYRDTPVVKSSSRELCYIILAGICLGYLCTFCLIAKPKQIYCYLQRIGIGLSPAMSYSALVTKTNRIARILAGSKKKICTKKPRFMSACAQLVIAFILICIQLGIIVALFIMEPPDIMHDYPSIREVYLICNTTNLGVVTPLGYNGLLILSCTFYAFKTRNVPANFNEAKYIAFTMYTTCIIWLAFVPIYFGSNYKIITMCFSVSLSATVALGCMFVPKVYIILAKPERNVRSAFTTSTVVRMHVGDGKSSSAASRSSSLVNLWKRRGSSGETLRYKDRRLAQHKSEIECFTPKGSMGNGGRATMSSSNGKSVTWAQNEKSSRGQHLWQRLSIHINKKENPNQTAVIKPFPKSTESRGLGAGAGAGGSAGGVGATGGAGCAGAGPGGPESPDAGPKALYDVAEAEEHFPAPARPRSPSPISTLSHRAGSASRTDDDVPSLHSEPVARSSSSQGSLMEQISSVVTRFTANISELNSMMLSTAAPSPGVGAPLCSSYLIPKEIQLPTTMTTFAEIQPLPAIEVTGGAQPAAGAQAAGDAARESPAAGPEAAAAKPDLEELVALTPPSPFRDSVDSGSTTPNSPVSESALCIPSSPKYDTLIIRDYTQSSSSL

Work on `Cc1ccc(-n2nc(C)c3conc3c2=O)cc1` yielded a Ki [1] of 1.88 µM, a Ki [2] of over 10 µM and an inhibition [3] of -9%.
Compound `Cc1nn(-c2ccccc2)c(=O)c2nocc12` has a Ki [1] of over 10 µM, an inhibition (Homo sapiens) of -6% and a Ki [2] of over 10 µM. The inhibition [3] was -5%.
In the case of `COc1ccc(-n2nc(C)c3conc3c2=O)cc1`, the Ki [1] is reported as over 10 µM, the Ki [2] is reported as over 10 µM and the inhibition [3] is reported as 9%.
`CN1CC(=O)N=C1NC(=O)Nc1cccc(Cl)c1` [FENOBAM ANHYDROUS] gave a Ki [1] of 0.033 µM.
`Cc1nn(-c2ccc(F)cc2F)c(=O)c2nocc12` showed a Ki [1] of over 10 µM, an inhibition (Homo sapiens) of -10% and a Ki [2] of over 10 µM. The inhibition [3] was -7%.
Work on `Cc1nn(-c2cc(C(F)(F)F)cc(C(F)(F)F)c2)c(=O)c2nocc12` yielded an inhibition (Homo sapiens) of -7.2%, a Ki [2] of over 10 µM and an inhibition [4] of 0%. It also gave an inhibition [3] of 11%.
`Cc1nn(-c2ccc(F)cc2)c(=O)c2nocc12` gave a Ki [1] of over 10 µM, an inhibition (Homo sapiens) of -6% and a Ki [2] of over 10 µM. It also gave an inhibition [4] of 23% and an inhibition [3] of 3%.
`Cc1nn(-c2cccc([N+](=O)[O-])c2)c(=O)c2nocc12` gave a Ki [1] of over 10 µM, a Ki [2] of over 10 µM and an inhibition [4] of 48%. It also gave an inhibition [3] of -10%.
`Cc1nn(-c2cc(Cl)cc(Cl)c2)c(=O)c2nocc12` was tested, and the Ki [1] was 3.08 µM, the inhibition (Homo sapiens) was -7.8% and the Ki [2] was over 10 µM. The inhibition [4] was 11% and the inhibition [3] was -6%.
`Cc1nn(-c2ccc([N+](=O)[O-])cc2)c(=O)c2nocc12` was tested, and the Ki [1] was over 10 µM, the inhibition (Homo sapiens) was -4.7% and the Ki [2] was over 10 µM. It also gave an inhibition [4] of 5% and an inhibition [3] of -3%.
